Results reported in US20190240172A1, “PHARMACEUTICAL COMPOSITION FOR PREVENTING OR TREATING DIABETES AND/OR […] COMPRISING MIDODRINE OR PHARMACEUTICALLY ACCEPTABLE SALT THEREOF AS ACTIVE INGREDIENT” (Cellvertics Co., Ltd., priority 2016, published 2019).
Marks after values point to notes of the source that are not given here.

Assays:
[1] = tested on: mouse-derived preadipocytes (3T3-L1); experiment: Fat content in adipocytes observed by microscope; format: cell-based; conditions: FIG. 8A
Procedure: (§1) The 3T3-L1 cells were grown in a medium (DMEM) containing 10% FBS (fetal bovine serum) and 1% antibiotic until 100% and then cultured for 48 hours after replacing the medium with a fresh medium. After adding a differentiation medium and the drug, the cells were cultured for 48 hours. The composition of the differentiation medium was as follows: 0.0125 μmol/mL dexamethasone, 12.5 μmol/mL 3-isobutyl-1-methylxanthine, 10 μg/mL insulin, 10% FBS. After treating with the differentiation medium for 48 hours, the medium was replaced with an insulin medium containing 10 μg/mL insulin and 10% FBS and then treated for 48-96 hours. Then, after replacing the medium with a normal medium containing 10% FBS only, the cells were cultured for 24-48 hours and then used for experiments.

[2] = tested on: SDH (succinate dehydrogenase); experiment: Enzymatic activity of SDH in skeletal muscle of SHR; format: in vivo, spontaneously hypertensive rat (SHR); conditions: among groups I-IV, FIG. 3A
Procedure: After adding 10 μL of protease inhibitor cocktail per 1 mL of PBS (phosphate-buffered saline) to each well (500 μL), 410 μL of a culture solution prepared by mixing 1 M phosphate buffer (25 μL×25=625 μL), 0.2 M sodium succinate (125 μL×25=3125 μL), NBT (25 μL×25=625 μL) and D.W. (235 μL×25=5875 μL) per well was heated to 37° C. for 20 minutes. […] After conducting centrifugation at 13000 rpm and 4° C. for 5 minutes, the supernatant was recovered and transferred to a fresh tube. After adding 410 μL of a culture solution to a tube, enzymatic reaction was conducted by adding 90 μL of the sample. After adding 410 μL of distilled water (DW) to another tube and adding 90 μL of the sample, the absorbance of the dilute was measured. After adding the enzymatic reaction tube and the another tube in water bath at 37° C., respectively, reaction was conducted for 30 minutes. The reaction was terminated by putting the tube in ice. After adding 200 μL to each well of a 96-well plate, absorbance was measured at 550 nm. Then, the enzymatic activity of succinate dehydrogenase (SDH) was measured by the following equation.
Enzymatic activity=(absorbance of enzymatic reaction solution−absorbance of diluted enzymatic reaction solution)/protein content (Bradford 595 nm)

[3] = tested on: HMG-CoA reductase protein (HMGCR); experiment: Expression of HMG-CoA reductase protein in liver of SHR; format: in vivo, spontaneously hypertensive rat (SHR); conditions: among rat groups, FIG. 7
[4] = tested on: mouse cardiac muscle cells (HL1); experiment: Western blot of p-AMPK and PPAR-δ in midodrine-treated cardiac muscle cells; format: cell-based; conditions: FIG. 1
Procedure: (§2) The L6 and HL1 cells were grown in a medium (DMEM) containing 10% FBS (fetal bovine serum) and 1% antibiotic until about 80% confluence, and then the medium was replaced with a medium containing 1% FBS for differentiation for 4 days. The drug was treated on day 3 of differentiation. All in-vitro experiments using the L6 and HL1 cells were conducted 24 hours after the drug treatment.
(§3) In order to investigate the effect of α1-AR stimulation on AMPK and AMPK phosphorylation (activation) in vitro, the mouse skeletal muscle cells […] and the mouse cardiac muscle cells (HL1) cultured in Example 1-1 were treated with 30 μM of midodrine, which is an α1-AR agonist, and then western blot was conducted as described in Example 2-3.

cytochrome c oxidase = experiment: Immunohistochemical staining for cytochrome c oxidase in skeletal muscle tissue of SHR; format: in vivo, spontaneously hypertensive rat (SHR); conditions: among groups I-IV, FIG. 3B
[5] = tested on: mouse skeletal muscle cells (C2C12); experiment: Western blot of p-AMPK and PPAR-δ in midodrine-treated skeletal muscle cells; format: cell-based; conditions: FIG. 1
Procedure: as §2, §3

[6] = Blood adiponectin by ELISA, normalized to visceral fat weight; format: in vivo, spontaneously hypertensive rat (SHR); conditions: SHR, 4 weeks in drinking water, mean ± SD
Description: The measured adiponectin level was normalized to the visceral fat weight (g).

[7] = Body weight, heart weight and abdominal fat weight in SHR; format: in vivo, spontaneously hypertensive rat (SHR)
Procedure: Body weight was measured for the same rats whose cardiac function was measured.
When the body weight and the weight of abdominal fat (visceral fat) were measured for the midodrine-administered rat (II), atenolol-administered rat (III) and unadministered 8-week-old hypertensive control rat (IV) of Example 1-2, midodrine administration decreased both the body weight and abdominal fat as shown in FIG. 9.

[8] = ATP level in tissue by ELISA; format: in vivo, spontaneously hypertensive rat (SHR); conditions: SHR, compared to control SHRs, FIG. 4
Procedure: 0.02 g of liver tissue isolated from the rats of Example 1-2 was homogenized in 500 μL of PBS. The homogenate was centrifuged at 1500×g (or 5000 rpm) for 15 minutes and the supernatant was recovered. After adding 100 μL of standard materials or samples to adequate wells of a pre-coated microtiter plate, 10 μL of the remaining solution was added to the sample. After adding 50 μL of the conjugate to each well and then mixing, the plate was covered and incubation was conducted at 37° C. for 1 hour. After adding 50 μL of each of substrates A and B to each well, incubation was conducted at 37° C. for 15 minutes. After adding a stop solution to each well, optical density was measured at 450 nm using a microplate reader.
The ATP level in the heart, skeletal muscle and liver of basal 4-week-old rat (I), midodrine-administered rat (II), atenolol-administered rat (III) and unadministered 8-week-old control rat (IV) was measured by ELISA according to the method of Example 2-1.

preadipocytes (3T3-L1) = experiment: Western blot of PPAR-δ, p-AMPK and PGC-1α in midodrine-treated adipocytes; format: cell-based, mouse; conditions: midodrine-treated adipocytes (3T3-L1), FIG. 8B
Procedure: as §1
In addition, when western blotting was conducted on the midodrine-treated adipocytes according to the method of Example 2-3, the expression of […], p-AMPK and PGC-1α proteins suppressing fat synthesis/accumulation was increased as shown in FIG. 8B.

[9] = tested on: spontaneously hypertensive rat (SHR); experiment: Cardiac function by M-mode echocardiography and heart rate in SHR; conditions: for Diastolic left ventricular inner diameter / Diastolic left ventricular posterior wall / Diastolic left ventricular wall / Left ventricular ejection fraction / Left ventricular fractional shortening / Left ventricular mass measured by ASE / Systolic left ventricular inner diameter / left ventricular performance: 8-week-old SHR, echocardiography; for Diastolic left ventricular inner diameter / Diastolic left ventricular posterior wall / Diastolic left ventricular wall / Left ventricular ejection fraction / Left ventricular fractional shortening / Left ventricular mass measured by ASE / Systolic left ventricular inner diameter: 4 weeks in drinking water (midodrine 0.3 mg/kg/day, atenolol 1 mg/kg/day), mean ± SD; for left ventricular performance: compared with unadministered control group IV
[10] = tested on: AMPK/PPAR-δ/PGC1α proteins; experiment: Western blot of AMPK, PPAR-δ and PGC-1α proteins in cardiac muscle, skeletal muscle, fat and liver of SHR
[11] = 8-week-old SHR, 4 weeks in drinking water (midodrine 0.3 mg/kg/day, atenolol 1 mg/kg/day), mean ± SD

Compound	expression level of HMG-CoA reductase protein (HMGCR) in the liver [3]	Adiponectin (serum level per weight of visceral fat) [6]	Body weight [7, 11]	Hear weight [7, 11]	ATP level in heart tissue [8]	Diastolic left ventricular inner diameter [9]	Diastolic left ventricular posterior wall [9]	Diastolic left ventricular wall [9]	Left ventricular ejection fraction [9]	Left ventricular fractional shortening [9]	Left ventricular mass measured by ASE [9]	Systolic left ventricular inner diameter [9]	left ventricular performance [9]	also measured
COC(=O)c1sccc1S(=O)(=O)Nc1ccc(Nc2ccccc2)cc1OC [GSK0660]														effect on fat content in adipocytes when GSK0660 is added to midodrine ([1]; 3T3-L1, 30 μM/L midodrine + 50 μM/L GSK0660 mixture (1:2 (w/w))): the effect of midodrine was decreased
COc1ccc(OC)c(C(O)CNC(=O)CN)c1 (racemic) [Midodrine, (RS)—N-[2-(2,5-dimethoxyphenyl)-2-hydroxyethyl]glycinamide]	the lowest	7585.8 ± 182.3^b ng/mL/g	238.24 ± 11.69^a g	1.47 ± 0.16^a g	higher	6.06 ± 0.42^a mm	1.54 ± 0.13^a mm	1.46 ± 0.13^a mm	81.55 ± 6.12^a %	45.48 ± 6.25^a %	1.04 ± 0.06 g	3.32 ± 0.54^a mm	higher	enzymatic activity of SDH in skeletal muscle [2]: the highest increase; expression of PPAR-δ protein [4]: increases; expression and phosphorylation of AMPK ([4]; midodrine 30 μM): resulted in the expression and phosphorylation of AMPK; cytochrome c oxidase immunohistochemical staining in skeletal muscle tissue (cytochrome c oxidase): the highest increase; expression of PPAR-δ protein [5]: increases; expression of phosphorylated AMPK ([5]; midodrine 30 μM): increased; Adiponectin (serum level per weight of visceral fat) ([6]; listed as group II): remarkably higher; Body weight ([7]; SHR groups II, III and IV, FIG. 9 (A)): decreased; weight of abdominal fat (visceral fat) ([7]; SHR groups II, III and IV, FIG. 9 (B)): decreased; expression of PGC-1α protein (preadipocytes (3T3-L1)): increased; expression of PPAR-5 protein (preadipocytes (3T3-L1)): increased; expression of p-AMPK protein (preadipocytes (3T3-L1)): increased; Left ventricular mass measured by ASE ([9]; listed as group II): the lowest; cardiac hypertrophy or further increase in blood pressure ([9]; SHR, summary statement, no blood pressure method described): without cardiac hypertrophy or further increase in blood pressure; AMPK expression in cardiac muscle ([10]; 4 weeks in drinking water, compared to control group IV, FIG. 2B): remarkably higher; AMPK expression in skeletal muscle ([10]; 4 weeks in drinking water, compared to control group IV, FIG. 2C): remarkably higher; AMPK expression in fat ([10]; 4 weeks in drinking water, compared to control group IV, FIG. 2D): remarkably higher; expression level of the phosphorylated AMPK protein in the liver ([10]; among groups I-IV, FIG. 2E): the highest; activation and expression of AMPK, PPAR-δ and PGC-1α in the heart, skeletal muscle and liver ([10]; summary statement): induces activation and increased expression; fat content in adipocytes ([1]; 3T3-L1, 30 μM/L midodrine, microscope): decreased
CC(C)NCC(O)COc1ccc(CC(N)=O)cc1 (stereo not shown) [Atenolol, atenolol]	the lowest	6136.5 ± 574.7^b,c ng/mL/g	296.46 ± 16.73^b g	1.47 ± 0.15^a g	higher	6.33 ± 0.35^a mm	1.67 ± 0.16 mm	1.50 ± 0.13^a mm	82.00 ± 5.31^a %	45.70 ± 5.82^a %	1.10 ± 0.07^a g	3.43 ± 0.28^a mm	higher	Body weight ([7]; 8-week-old SHR, 4 weeks in drinking water (midodrine 0.3 mg/kg/day, atenolol 1 mg/kg/day), mean ± SD, listed as group III): the highest; heart rate ([9]; SHR from 4 weeks of age, measured over 1 month, at the end of the experiment, among three groups, FIG. 6): the lowest
